{"source": "patent US20050119288A1", "about": "“Dosing schedule for a novel anticancer agent” (Pfizer Inc, priority 2003, published 2005)", "key": {"in vivo": {"experiment": "in vivo", "conditions": "athymic, mouse, plasma", "method": "(§2) The test compound was either administered using tail vein infusion or orally.\n(§3) A 1.15 mg/ml solution of the test compound was infused IV at 550 μl/hr for 2 minute ramped infusions followed by 50 μl/hr for 15 min or 4 hour daily infusions. (Projection was based on Cl of the test compound). Athymic female mice bearing FRE/erbB2 tumors (˜100 mm^3 in size) were treated with vehicle, the test compound orally or the test compound intravenously. […] The study was carried out for 7 days. Plasma and tumor samples were isolated for PK and PD analysis at the termination of study."}, "[1]": {"biological_target": "T1, erbB2 receptor autophosphorylation (Homo sapiens, UniProt P04626)", "T1 sequence (P04626 23-1255)": "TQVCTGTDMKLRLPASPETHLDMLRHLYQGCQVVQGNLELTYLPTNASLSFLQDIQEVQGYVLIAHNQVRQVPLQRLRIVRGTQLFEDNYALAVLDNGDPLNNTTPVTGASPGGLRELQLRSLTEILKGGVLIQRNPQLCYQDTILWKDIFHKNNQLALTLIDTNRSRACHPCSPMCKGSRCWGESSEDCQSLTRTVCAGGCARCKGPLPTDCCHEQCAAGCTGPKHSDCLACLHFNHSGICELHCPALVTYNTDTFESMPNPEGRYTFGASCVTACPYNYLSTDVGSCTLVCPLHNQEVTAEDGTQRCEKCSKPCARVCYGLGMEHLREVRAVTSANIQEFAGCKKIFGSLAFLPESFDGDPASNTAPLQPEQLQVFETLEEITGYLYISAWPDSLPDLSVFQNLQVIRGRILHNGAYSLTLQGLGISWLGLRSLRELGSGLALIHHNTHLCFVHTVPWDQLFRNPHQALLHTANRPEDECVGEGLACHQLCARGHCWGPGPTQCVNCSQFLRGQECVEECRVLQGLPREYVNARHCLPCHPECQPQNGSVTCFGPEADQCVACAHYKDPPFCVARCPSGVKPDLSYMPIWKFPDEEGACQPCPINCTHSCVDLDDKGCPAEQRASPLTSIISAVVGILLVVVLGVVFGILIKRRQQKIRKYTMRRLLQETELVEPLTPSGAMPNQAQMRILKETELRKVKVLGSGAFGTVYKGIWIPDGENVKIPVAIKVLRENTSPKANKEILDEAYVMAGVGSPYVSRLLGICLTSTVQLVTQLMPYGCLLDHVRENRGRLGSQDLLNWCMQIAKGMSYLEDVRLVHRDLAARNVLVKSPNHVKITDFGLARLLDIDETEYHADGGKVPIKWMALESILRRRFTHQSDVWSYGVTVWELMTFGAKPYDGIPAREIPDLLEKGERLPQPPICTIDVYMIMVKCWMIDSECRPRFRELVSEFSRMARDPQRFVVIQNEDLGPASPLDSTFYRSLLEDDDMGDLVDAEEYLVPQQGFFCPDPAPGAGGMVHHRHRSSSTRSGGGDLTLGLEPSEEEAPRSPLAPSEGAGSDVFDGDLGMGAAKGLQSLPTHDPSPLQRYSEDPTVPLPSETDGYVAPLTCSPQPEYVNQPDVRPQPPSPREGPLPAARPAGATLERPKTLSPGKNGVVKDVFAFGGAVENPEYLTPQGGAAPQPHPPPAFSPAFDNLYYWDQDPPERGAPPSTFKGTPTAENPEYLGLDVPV", "experiment": "p-erbB2 reduction in SK-OV-3 tumors by ELISA", "format": "in vivo", "conditions": "0.5 hr post-dosing on day 18", "protocol": "SK-OV-3 cells obtained from ATCC (Rockville, Md.) were grown in McCoy's medium containing 10% fetal bovine serum and pen/strep. Exponentially growing cells were harvested and inoculated SC (5 million cells/animal) into female athymic mice. The tumor measurements and body weight changes were obtained on days 1, 3, 6, 10, 13 and 18. Tumor volume was calculated by the following formula: Tumor volume (mm^3)═(W×W)/2×L (L=length & W=width). Blood samples (˜50 μl) were isolated at 0.5, 1, 2, 4 and 8 hrs after dosing on day 18 for PK-analysis. Tumors were isolated at 0.5 hr post-dosing on day 18 for PD-analysis by ELISA."}, "[2]": {"experiment": "Plasma concentration in FRE/erbB2 tumor-bearing mice", "method": "as §2, §3"}, "BT-474 tumors": {"test_system": "BT-474 tumors", "experiment": "BT-474 xenograft tumor growth in athymic mice", "format": "in vivo, human", "conditions": "PO; for % Growth inhibition: 22 days", "from_the_text": "The in vivo anti-tumor activity of the compounds for use in the methods of the present invention can be determined by the amount of inhibition of tumor growth by a test compound relative to a control. The tumor growth inhibitory effects of various compounds can be measured according to the method of Corbett T. H., et al., “Tumor Induction Relationships in Development of Transplantable Cancers of the Colon in Mice for Chemotherapy Assays, with a Note on Carcinogen Structure”, Cancer Res., 35, 2434-2439 (1975) and Corbett T. H., et al., “A Mouse Colon-tumor Model for Experimental Therapy”, Cancer Chemother. Rep. (Part 2)”, 5, 169-186 (1975), with slight modifications. Tumors can be induced in the left flank of mice by subcutaneous (sc) injection of 1-5 million log phase cultured tumor cells suspended in 0.1 ml RPMI 1640 medium. After sufficient time has elapsed for the tumors to become palpable (˜100-150 mm^3 in size/5-6 mm in diameter) the test animals (athymic female mice) are treated with test compound (formulated at a concentration of 10 to 15 mg/ml in 5 Gelucire or 0.5% methyl cellulose) by the intravenous (iv) or oral (po) route of administration once or twice daily for 7 to 29 consecutive days. In order to determine an anti-tumor effect, the tumor is measured in millimeters with a Vernier caliper across two diameters and the tumor size (mm^3) is calculated using the formula: Tumor size (mm^3)=(W×W)/2×L (L=length and W=width), according to the methods of Geran, R. I., et al. “Protocols for Screening Chemical Agents and Natural Products Against Animal Tumors and Other Biological Systems”, Third Edition, Cancer Chemother. Rep., 3, 1-104 (1972). Results are expressed as percent inhibition, according to the formula: Inhibition Growth (%)=[100-{(% Growth of Treated/% Growth of Control)×100}]. The flank site of tumor implantation provides reproducible dose/response effects for a variety of chemotherapeutic agents, and the method of measurement (tumor diameter) is a reliable method for assessing tumor growth rates.\n(§1) Exponentially growing BT-474 cells (RPMI 1640 with 10 mM HEPES, 10% FBS, and pen/strep [Gibco]) were harvested and inoculated SC (5 million cells/animal) into female athymic mice. Trochar pieces of BT-474 tumors were then implanted into the right flank of animals. BT-474 tumor bearing mice (50-320 mm^3 in size, N=40) were randomized in 7 groups consisting 5-6 animals each. Animals were treated with vehicle (PO, BID) or the test compound (PO, QD or BID) as described in Table 4. The tumor measurements and body weight changes were obtained on days 1, 6, 11, 15 and 22. Tumor volume was calculated by the following formula: Tumor volume (mm^3)═(W×W)/2×L (L=length & W=width). Blood samples (˜50 μl) were isolated at 0.5, 1, 2, 4 and 8 hrs after dosing on day 22 for PK-analysis. Tumors were isolated at 0.5 hr post-dosing on day 22 for PD-analysis by ELISA.\nStatistical Analysis: ANOVA was conducted on the percentage growth data and planned comparisons were conducted between like-doses. The data were log transformed for the analysis due to the distribution of the values. The Dunnett-Tamahane procedure was used for the multiple comparison analysis.\nThus, oral anti-tumor efficacy of the test compound (QD and BID) was determined against human breast adenocarcinoma model BT-474 which overexpresses erbB2. The test compound administration (QD or BID) was efficacious and caused growth inhibition of BT-474 xenografts (FIGS. 5a and 5b). […] Due to a wide variation in the initial tumor volume, % growth of individual tumor was calculated and an average of each group was used to determine relative anti-tumor efficacy."}, "[3]": {"biological_target": "T1, erbB2 receptor autophosphorylation", "experiment": "p-erbB2 reduction in BT-474 tumors by ELISA", "format": "in vivo", "conditions": "0.5 hr post-dosing on day 22; for inhibition in vivo at 30 mg/kg / inhibition in vivo at 50 mg/kg: BT-474, po, 0.5 h; for % p-erbB2 reduction: PO", "protocol": "as §1"}, "[4]": {"conditions": "BID, 15 mg/kg (Total Daily Dose = 30 mg/kg)"}, "[5]": {"conditions": "BID, 30 mg/kg (Total Daily Dose = 60 mg/kg)"}, "[6]": {"conditions": "BID, 50 mg/kg (Total Daily Dose = 100 mg/kg)"}}, "data": [{"smiles": "COCC(=O)NC/C=C/c1ccc2ncnc(Nc3ccc(Oc4ccc(C)nc4)c(C)c3)c2c1", "note": "[Test Compound, E-2-Methoxy-N-(3-{4-(3-methyl-4-(6-methyl-pyridin-3-yloxy)-phenylamino)-quinazolin-6-yl}-allyl)-acetamide]", "values": [{"measurement": "AUC(0-t)", "setting": "in vivo", "value": "~985", "unit": "ng·h/mL"}, {"measurement": "Cmax", "setting": "in vivo", "value": "~1200", "unit": "ng/mL"}, {"measurement": "concentration at 7 days", "setting": "in vivo; female, intravenous, 1.4 mg/kg", "value": "448 ± 141", "unit": "ng/mL"}, {"measurement": "concentration at 0.5 h", "setting": "in vivo; female, oral, 25 mg/kg", "value": 1460, "unit": "ng/mL"}, {"measurement": "inhibition in vivo at 25 mg/kg", "setting": "[1]; SK-OV-3, po, 0.5 h, PO, BID 25 mg/kg (Total Daily Dose = 50 mg/kg)", "value": 20, "unit": "%"}, {"measurement": "inhibition in vivo at 50 mg/kg", "setting": "[1]; SK-OV-3, po, 0.5 h, PO, BID 50 mg/kg (Total Daily Dose = 100 mg/kg)", "value": 24, "unit": "%"}, {"measurement": "inhibition in vivo at 100 mg/kg", "setting": "[1]; SK-OV-3, po, 0.5 h, PO, BID 100 mg/kg (Total Daily Dose = 200 mg/kg)", "value": 62, "unit": "%"}, {"measurement": "inhibition in vivo at 50 mg/kg", "setting": "[1]; SK-OV-3, po, 0.5 h, PO, QD 50 mg/kg", "value": 14, "unit": "%"}, {"measurement": "inhibition in vivo at 100 mg/kg", "setting": "[1]; SK-OV-3, po, 0.5 h, PO, QD 100 mg/kg", "value": 75, "unit": "%"}, {"measurement": "inhibition in vivo at 200 mg/kg", "setting": "[1]; SK-OV-3, po, 0.5 h, PO, QD 200 mg/kg", "value": 90, "unit": "%"}, {"measurement": "reduction of erbB2 receptor autophosphorylation", "setting": "[1]; span over 50 mg/kg QD and 25 mg/kg BID", "value": "14-20%"}, {"measurement": "Plasma Concentration (Mean ± SE)", "setting": "[2]; 10.7 mg/kg IV, 4 hr/day", "value": "473 ± 141", "unit": "ng/mL"}, {"measurement": "Plasma Concentration (Mean ± SE)", "setting": "[2]; 10.7 mg/kg IV, 4 hr/day, listed as test compound", "value": "~500", "unit": "ng/mL"}, {"measurement": "Plasma Concentration (Mean ± SE)", "setting": "[2]; 25 mg/kg PO, QD, 0.5 h post-dosing on day 7", "value": "1460 ± 170", "unit": "ng/mL"}, {"measurement": "Tumor volume Day 1 (Mean ± SE)", "setting": "BT-474 tumors; BID 50 mg/kg", "value": "155 ± 42", "unit": "mm^3"}, {"measurement": "% Growth inhibition", "setting": "BT-474 tumors; [4]", "value": 54, "unit": "%"}, {"measurement": "Tumor volume Day 1 (Mean ± SE)", "setting": "BT-474 tumors; BID, 15 mg/kg", "value": "114 ± 47", "unit": "mm^3"}, {"measurement": "Tumor volume Day 22 (Mean ± SE)", "setting": "BT-474 tumors; BID, 15 mg/kg", "value": "520 ± 254", "unit": "mm^3"}, {"measurement": "% Growth inhibition", "setting": "BT-474 tumors; [5]", "value": 68, "unit": "%"}, {"measurement": "Tumor volume Day 1 (Mean ± SE)", "setting": "BT-474 tumors; BID, 30 mg/kg", "value": "161 ± 44", "unit": "mm^3"}, {"measurement": "Tumor volume Day 22 (Mean ± SE)", "setting": "BT-474 tumors; BID, 30 mg/kg", "value": "530 ± 240", "unit": "mm^3"}, {"measurement": "% Growth inhibition", "setting": "BT-474 tumors; [6]", "value": 68, "unit": "%"}, {"measurement": "Tumor volume Day 22 (Mean ± SE)", "setting": "BT-474 tumors; BID, 50 mg/kg", "value": "413 ± 98", "unit": "mm^3"}, {"measurement": "Tumor volume Day 1 (Mean ± SE)", "setting": "BT-474 tumors; QD 50 mg/kg", "value": "153 ± 40", "unit": "mm^3"}, {"measurement": "% Growth inhibition", "setting": "BT-474 tumors; QD, 15 mg/kg", "value": 22, "unit": "%"}, {"measurement": "Tumor volume Day 1 (Mean ± SE)", "setting": "BT-474 tumors; QD, 15 mg/kg", "value": "78 ± 18", "unit": "mm^3"}, {"measurement": "Tumor volume Day 22 (Mean ± SE)", "setting": "BT-474 tumors; QD, 15 mg/kg", "value": "376 ± 79", "unit": "mm^3"}, {"measurement": "% Growth inhibition", "setting": "BT-474 tumors; QD, 30 mg/kg", "value": 33, "unit": "%"}, {"measurement": "Tumor volume Day 1 (Mean ± SE)", "setting": "BT-474 tumors; QD, 30 mg/kg", "value": "139 ± 31", "unit": "mm^3"}, {"measurement": "Tumor volume Day 22 (Mean ± SE)", "setting": "BT-474 tumors; QD, 30 mg/kg", "value": "635 ± 189", "unit": "mm^3"}, {"measurement": "% Growth inhibition", "setting": "BT-474 tumors; QD, 50 mg/kg", "value": 35, "unit": "%"}, {"measurement": "Tumor volume Day 22 (Mean ± SE)", "setting": "BT-474 tumors; QD, 50 mg/kg", "value": "608 ± 136", "unit": "mm^3"}, {"measurement": "inhibition in vivo at 30 mg/kg", "setting": "[3]; [5]", "value": 26, "unit": "%"}, {"measurement": "inhibition in vivo at 50 mg/kg", "setting": "[3]; [6]", "value": "~75", "unit": "%"}, {"measurement": "inhibition in vivo at 30 mg/kg", "setting": "[3]; QD, 30 mg/kg", "value": 57, "unit": "%"}, {"measurement": "inhibition in vivo at 50 mg/kg", "setting": "[3]; QD, 50 mg/kg", "value": "~75", "unit": "%"}, {"measurement": "% p-erbB2 reduction", "setting": "[3]; [4]", "value": "below the limit of detection"}, {"measurement": "% p-erbB2 reduction", "setting": "[3]; [5]", "value": 26, "unit": "%"}, {"measurement": "% p-erbB2 reduction", "setting": "[3]; QD, 15 mg/kg, 15 mg/kg", "value": "below the limit of detection"}]}]}
